Experiments:
[1] = test system: JAK2, TYK2/p-STAT4 (Tyr693) activated by IL-12 in NK-92 cell line; experiment: IL-12-JAK2, TYK2/p-STAT4 (Tyr693) inhibition IC50 cellular assay; format: cell-based; details: for Selectivity fold (TYK2/JAK2): Cellular assay, pSTAT5/GM-CSF IC50 vs pSTAT4/IL-12 IC50; for IC50: NK92, Cellular assay, read-out: pSTAT4/IL-12 IC50
How it was run: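 NK-92 cells were starved overnight without IL-2 and preincubated 1 h at 37° C with compound (8 doses, 10000–0.61 nM, 4-fold, 0.2% DMSO). They were then stimulated with IL-12 (40 ng/ml final) for 30 min. Lysate p-STAT4 (Tyr693) was read by AlphaLISA SureFire; IC50 from four-parameter logistic fit.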

[2] = biological target: T1, TYK2-JH2 (aa 575-869, in-house) protein (Homo sapiens, UniProt P29597); experiment: TYK2-JH2 biochemical assay (HTRF probe displacement); format: binding; details: Biochemical assay; read-out: TYK2-JH2 IC50
T1 construct: TYK2-JH2 (aa 575-869, in-house) protein; made in house
How it was run: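 Recombinant TYK2-JH2 (0.2 nM) was pre-incubated 0.5 h at room temperature with compounds (10 doses, 5-fold dilution; 500× DMSO stocks from 500 uM) in 20 mM HEPES pH 7.5, 10 mM MgCl2, 0.005% BSA, 2 mM DTT, 0.015% Brij-35. Probe displacement was read by HTRF (ex337, em620/665 nm); IC50 from four-parameter logistic fit.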

pSTAT5/GM-CSF = pSTAT5/GM-CSF cellular assay (JAK2 selectivity); format: cell-based
[3] = pSTAT5/GM-CSF IC50 over pSTAT4/IL-12 IC50

T1 sequence (P29597 575-869): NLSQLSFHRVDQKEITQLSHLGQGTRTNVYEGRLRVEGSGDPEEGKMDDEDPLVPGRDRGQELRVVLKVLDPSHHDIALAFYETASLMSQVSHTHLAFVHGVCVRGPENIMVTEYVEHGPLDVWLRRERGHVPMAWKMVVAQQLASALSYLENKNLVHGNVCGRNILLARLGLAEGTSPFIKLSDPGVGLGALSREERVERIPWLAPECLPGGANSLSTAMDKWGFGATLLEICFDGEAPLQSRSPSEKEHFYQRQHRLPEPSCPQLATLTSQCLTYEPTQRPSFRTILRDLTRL

Compound | Selectivity fold (TYK2/JAK2) [1] [fold] | IC50 [1] [nM] | IC50 [2] [nM] | IC50 (pSTAT5/GM-CSF) [µM] | Selectivity fold (TYK2/JAK2) (pSTAT5/GM-CSF; [3]) [fold] | Selectivity fold (TYK2/JAK2) (pSTAT5/GM-CSF; pSTAT5/GM-CSF vs pSTAT4/IL-12) [fold]
CC(=O)Nc1cc(Nc2cc(OCC3COC3)cc(S(C)(=O)=O)n2)c(-c2ccc(C(C)(C)O)cn2)cn1 [Example H12, N-(5-(2-hydroxypropan-2-yl)-4′-((6-(methylsulfonyl)-4-(oxetan-3-ylmethoxy)pyridin-2-yl)amino)-[2,3′-bipyridin]-6′-yl)acetamide] | >1960 | 5.1 | 0.022 | > 10 |  | 
COCCOc1cc(Nc2cc(NC(C)=O)ncc2-c2ccn(C(C)C)n2)nc(S(C)(=O)=O)c1 [Example M24, N-(5-(1-isopropyl-1H-pyrazol-3-yl)-4-((4-(2-methoxyethoxy)-6-(methylsulfonyl)pyridin-2-yl)amino)pyridin-2-yl)acetamide] |  | 0.487 | 0.032 | 2.18 | 4466 | 
CC(=O)Nc1cc(Nc2ccc(F)c(S(C)(=O)=O)n2)c(-c2ccc(C(C)(C)O)cn2)cn1 [Example H34, N-(4′-((5-fluoro-6-(methylsulfonyl)pyridin-2-yl)amino)-5-(2-hydroxypropan-2-yl)-[2,3′-bipyridin]-6′-yl)acetamide] | >8928 | 1.12 | 0.023 | > 10 |  | 
COCCOc1cc(Nc2cc(NC(C)=O)ncc2-c2ccc(COC)cn2)nc(S(C)(=O)=O)c1 [Example E5, N-(4′-((4-(2-methoxyethoxy)-6-(methylsulfonyl)pyridin-2-yl)amino)-5-(methoxymethyl)-[2,3′-bipyridin]-6′-yl)acetamide] | >19960 | 0.501 | 0.022 | > 10 |  | 
CCS(=O)(=O)c1cccc(Nc2cc(NC(C)=O)ncc2-c2ccn(C)n2)n1 [Example J5, N-(4-((6-(ethylsulfonyl)pyridin-2-yl)amino)-5-(1-methyl-1H-pyrazol-3-yl)pyridin-2-yl)acetamide] |  | 2.05 | 0.022 | > 10 | >4878 | 
CC(=O)Nc1cc(Nc2cccc(S(C)(=O)=O)n2)c(-c2ccc(N3CCOCC3=O)cn2)cn1 [Example G2, N-(4′-((6-(methylsulfonyl)pyridin-2-yl)amino)-5-(3-oxomorpholino)-[2,3′-bipyridin]-6′-yl)acetamide] |  | 14.2 | 0.067 | > 10 |  | >704
CC(=O)Nc1cc(Nc2cc(C(F)F)cc(S(C)(=O)=O)c2)c(-c2ccn(C)n2)cn1 [Example J32, N-(4-((3-(difluoromethyl)-5-(methylsulfonyl)phenyl)amino)-5-(1-methyl-1H-pyrazol-3-yl)pyridin-2-yl)acetamide] |  | 8.79 | 0.079 | > 10 | >1137 | 
CC(=O)Nc1cc(Nc2cc(C)cc(S(C)(=O)=O)c2)c(-c2ccn(C)n2)cn1 [Example J8, N-(5-(1-methyl-1H-pyrazol-3-yl)-4-((3-methyl-5-(methylsulfonyl)phenyl)amino)pyridin-2-yl)acetamide] |  | 7.67 | 0.073 | > 10 | >1303 | 
CC(=O)Nc1cc(Nc2cc(OCC3(C)COC3)cc(S(C)(=O)=O)n2)c(-c2ccc3c(n2)OCC(C)(C)O3)cn1 [Example Q98, N-(5-(2,2-dimethyl-2,3-dihydro-[1,4]dioxino[2,3-b]pyridin-6-yl)-4-((4-((3-methyloxetan-3-yl)methoxy)-6-(methylsulfonyl)pyridin-2-yl)amino)pyridin-2-yl)acetamide] |  | 1.15 | 0.026 | > 10 | >8695 | 
COCCOc1cc(Nc2cc(NC(C)=O)ncc2-c2ccc(C(C)(C)O)cn2)cc(S(C)(=O)=O)c1 [Example H15, N-(5-(2-hydroxypropan-2-yl)-4′-((3-(2-methoxyethoxy)-5-(methylsulfonyl)phenyl)amino)-[2,3′-bipyridin]-6′-yl)acetamide] | >2044 | 4.89 | 0.029 | > 10 |  | 
CC(=O)Nc1cc(Nc2ccc(F)c(S(C)(=O)=O)n2)c(-c2ccn(C)n2)cn1 [Example J54, N-(4-((5-fluoro-6-(methylsulfonyl)pyridin-2-yl)amino)-5-(1-methyl-1H-pyrazol-3-yl)pyridin-2-yl)acetamide] |  | 2.03 | 0.028 | > 10 | >4926 | 
COCc1cc(Nc2cc(NC(C)=O)ncc2-c2ccc(C(C)(C)O)cn2)nc(S(C)(=O)=O)c1 [Example H13, N-(5-(2-hydroxypropan-2-yl)-4′-((4-(methoxymethyl)-6-(methylsulfonyl)pyridin-2-yl)amino)-[2,3′-bipyridin]-6′-yl)acetamide] | 6028 | 0.676 | 0.042 | 4.08 |  | 
CC(=O)Nc1cc(Nc2cc(OC3COC3)cc(S(C)(=O)=O)n2)c(-c2ccc(C(C)(C)O)cn2)cn1 [Example H27, N-(5-(2-hydroxypropan-2-yl)-4′-((6-(methylsulfonyl)-4-(oxetan-3-yloxy)pyridin-2-yl)amino)-[2,3′-bipyridin]-6′-yl)acetamide] | >3676 | 2.72 | 0.031 | > 10 |  | 
CC(=O)Nc1cc(Nc2cccc(S(C)(=O)=O)n2)c(-c2ccc(OC3CCOC3)cn2)cn1 (stereo not shown) [Example B23, N-(4′-((6-(methylsulfonyl)pyridin-2-yl)amino)-5-((tetrahydrofuran-3-yl)oxy)-[2,3′-bipyridin]-6′-yl)acetamide] | 3260 | 0.307 | 0.04 | 1 |  | 
CCn1ccc(-c2cnc(NC(C)=O)cc2Nc2cc(OCCOC)cc(S(C)(=O)=O)c2)n1 [Example M14, N-(5-(1-ethyl-1H-pyrazol-3-yl)-4-((3-(2-methoxyethoxy)-5-(methylsulfonyl)phenyl)amino)pyridin-2-yl)acetamide] |  | 9.46 | 0.03 | > 10 | >1057 | 
COc1cc(Nc2cc(NC(C)=O)ncc2-c2ccc(N3C[C@@H](C)O[C@@H](C)C3)cn2)nc(S(C)(=O)=O)c1 [Example C9, N-(5-(cis-2,6-dimethylmorpholino)-4′-((4-methoxy-6-(methylsulfonyl)pyridin-2-yl)amino)-[2,3′-bipyridin]-6′-yl)acetamide] | >14880 | 0.672 | 0.027 | > 10 |  | 
COCCOc1cc(Nc2cc(NC(C)=O)ncc2-c2ccc(C(C)(C)O)cn2)nc(S(C)(=O)=O)c1 [Example H6, N-(5-(2-hydroxypropan-2-yl)-4′-((4-(2-methoxyethoxy)-6-(methylsulfonyl)pyridin-2-yl)amino)-[2,3′-bipyridin]-6′-yl)acetamide] | 7097 | 1.25 | 0.014 | 8.87 |  | 
CC(=O)Nc1cc(Nc2cc(OCCO)cc(S(C)(=O)=O)n2)c(-c2ccn(C(C)C)n2)cn1 [Example M28, N-(4-((4-(2-hydroxyethoxy)-6-(methylsulfonyl)pyridin-2-yl)amino)-5-(1-isopropyl-1H-pyrazol-3-yl)pyridin-2-yl)acetamide] |  | 16.6 | 0.032 | > 10 | >601 | 
[2H]C([2H])([2H])Oc1cc(Nc2cc(NC(C)=O)ncc2-c2ccc(N3C[C@@H](C)O[C@@H](C)C3)cn2)nc(S(C)(=O)=O)c1 [Example C17, N-(5-((cis)-2,6-dimethylmorpholino)-4′-((4-(methoxy-d3)-6-(methylsulfonyl)pyridin-2-yl)amino)-[2,3′-bipyridin]-6′-yl)acetamide] | >16528 | 0.605 | 0.022 | > 10 |  | 
COc1ccc(-c2cnc(NC(C)=O)cc2Nc2nc(S(C)(=O)=O)cc3c2OCO3)nn1 [Example A28, N-(5-(6-methoxypyridazin-3-yl)-4-((6-(methylsulfonyl)-[1,3]dioxolo[4,5-c]pyridin-4-yl)amino)pyridin-2-yl)acetamide] | >6578 | 1.52 | 0.033 | > 10 |  | 
COCCOc1cc(Nc2cc(NC(C)=O)ncc2-c2cc(N3CCOCC3)n(C)n2)nc(S(C)(=O)=O)c1 [Example O2, N-(4-((4-(2-methoxyethoxy)-6-(methylsulfonyl)pyridin-2-yl)amino)-5-(1-methyl-5-morpholino-1H-pyrazol-3-yl)pyridin-2-yl)acetamide] |  | 1.12 | 0.016 | 7.01 | 6265 | 
CC(=O)Nc1cc(Nc2cc(OCC(C)O)cc(S(C)(=O)=O)n2)c(-c2ccn(C)n2)cn1 (stereo not shown) [Example J24, N-(4-((4-(2-hydroxypropoxy)-6-(methylsulfonyl)pyridin-2-yl)amino)-5-(1-methyl-1H-pyrazol-3-yl)pyridin-2-yl)acetamide] |  | 6.05 | 0.028 | > 10 | >1652 | 

— US20240043435A1, “TYK-2 INHIBITOR” (BEIGENE, LTD., priority 2020, published 2024)
